Tests used:
Assay type in all cases: cell-based, human
[1] = test system: hESC-derived WT1+ epicardial cells; test: EMT induction in passaged day 15 WT1+ epicardial cells; qRT-PCR, flow cytometry, immunostaining; details: for WT1 expression over time after EMT initiation: qRT-PCR, eight-day culture
Protocol: FIG. 11. WT1^+ epicardial cells undergo EMT in response to TGFβ1 and bFGF treatment. (a) Scheme of the protocol used for EMT induction. Day 15 WT1+ cultures are passaged, allowed to settle for 1 day and then treated with TGFβ1 (5 ng/ml) for 4 days followed by no treatment (TGFβ), sequential treatment with […] (5 ng/ml) for 4 days followed by bFGF (10 ng/ml) for 4 days (TGFβ+bFGF), or bFGF (10 ng/ml) treatment for 8 days (bFGF). No treatment of the cultures serves as a control. (b) Flow cytometric analyses of cultures 8 days following the initiation of EMT for the cell surface mesenchymal marker CD90. Gray filled histogram indicates control culture fluorescence intensity. (c) qRT-PCR-based expression of the epicardial gene WT1 and the EMT-induced genes SNAI1 and SNAI2 on days 2, 4, 6 and 8 after EMT initiation. Values are expressed as fold change to experiment-matched pre-passaged day 15 WT1+ cultures. Error bars represent standard deviation from the mean of the values from three independent experiments (N=3); *P≤0.05, **P≤0.01 compared to no treatment control.
FIG. 12. WT1 and ZO1 expression is lost in response to EMT. Phase contrast and fluorescent immunostaining showing cell morphology and the expression of ZO1 and WT1 proteins in epicardial cultures 8 days after EMT initiation with the indicated factors.
FIG. 13. EPDCs display characteristic expression of fibroblasts and vascular smooth muscle cell markers by fluorescent immunostaining. Fluorescent immunostaining showing α-Smooth muscle actin (SMA) and Vimentin (VIM) protein in cultures 8 days after EMT initiation with the indicated factors.
FIG. 14. EPDCs display characteristic expression of fibroblasts and vascular smooth muscle cell markers by qRT-PCR. qRT-PCR-based expression analyses of the smooth muscle genes […], MYH11, TAGLN and SMTN and the epicardial/cardiac fibroblast gene TCF21 in the indicated cultures 8 days after EMT initiation. Values are expressed as fold change to experiment-matched pre-passaged day 15 WT1^+ epicardium cultures. Error bars represent standard deviation from the mean of the values from three independent experiments (N=3); *P≤0.05, **P≤0.01 compared to no treatment control cultures.
To determine if the hESC-derived WT1^+ epicardial-like cells can undergo EMT, an assay was designed in which D15 epicardial cells are passaged, allowed one day to recover, and then treated for a total of eight days with one of four treatment regimens. The regimens consisted of: 1) TGFβ-1 for four days followed by four days with no additional factor (TGFβ), 2) TGFβ-1 for four days followed by four days with bFGF (TGFβ+bFGF), 3) bFGF for eight days (bFGF) or 4) no additional factors for eight days (FIG. 11a). Following culture under the different conditions, the cells were harvested and analyzed by qRT-PCR and flow cytometry.

hPSC-derived Epi cells = test: Matrigel invasion assay eight days after EMT induction, confocal microscopy and 3D reconstruction; details: eight days following induction of EMT
Source text: (a) Representative fields of view in the XY plane (top view) and 3D reconstruction (side view) of the matrigel invasion assay on D8 after EMT induction.
(b) Maximum matrigel invasion depth on D8 following EMT initiation. Bars represent standard error of the mean of the values from three independent experiments (N=3); **P≤0.01 compared to non-treated controls as analyzed by Student's T-test.
It is well established that during heart development EPDCs, and in particular cardiac fibroblasts, invade the myocardial layer^33. To assess this potential of the hPSC-derived Epi cells, their ability to invade a 3D layer of Matrigel following induction of EMT with the different factors was measured. To enable us to easily track the migration of the cells, the Epi population was generated from GFP expressing hESCs^48. Matrigel invasion was monitored eight days following the induction of EMT by confocal microscopy and evaluated using 3D image reconstruction (FIG. 16a). […] Along with invasion, bFGF treatment also led to an increase in total cell number within the regions of interest (ROI). […] To further quantify the degree of invasion, the proportion of cells in each population that migrated to different depths was calculated. Virtually all of the cells in the non-induced, the TGFβ-induced and TGFβ+bFGF-induced populations were detected within the first 200 μm of the gel. In contrast, approximately half of the cells in the bFGF-induced population migrated beyond this depth, some as far as 600 μm.

WT1+ epicardial cells = test: ALDH1A2 expression (qRT-PCR) and Aldefluor staining (flow cytometry) after EMT induction; details: cultures in which EMT had been induced, versus non-treated passaged epicardial cells
Source text: FIG. 17. WT1^+ epicardial cells upregulate ALDH1A2 expression and display aldehyde dehydrogenase activity following passage. (a) qRT-PCR-based expression analyses of ALDH1A1, ALDH1A2 and ALDH1A3 in D15 WT^+ epicardial cultures and Day 15+8 post-passage non-treated epicardial cultures. Values are relative to the housekeeping gene TBP. Error bars represent standard deviation from the mean of the values from three independent experiments (N=3); *P≤0.05, **P≤0.01 compared to ALDH1A2 expression levels. (b) qRT-PCR-based expression analyses of ALDH1A2 on days 2, 4, 6 and 8 following the initiation of EMT. Values are expressed as fold change to experiment-matched pre-passaged day 15 WT1^+ epicardial cultures. Error bars represent standard deviation from the mean of the values from three independent experiments (N=3); *P≤0.05, **P≤0.01 compared to no treatment control cultures. (c) Flow cytometric analyses of Aldefluor on day 15 populations generated from cells treated from days 4 to 6 with DM (non-cardiac, non-epicardial), BMP4+XAV (cardiomyocytes) or BMP4+CHIR (WT1^+ epicardial cells). (d) Flow cytometry analyses of Aldefluor on WT1^+ epicardium-derived cultures 8 days following the initiation of EMT with the indicated treatments. […]

[2] = test system: hESC epicardial-derived smooth muscle-like cells; test: Calcium transients of EMT-induced cells after norepinephrine (NE) and phenylephrine (PE) stimulation
Protocol: (a) The total proportion of actively cycling cells in EMT-induced cultures was measured for the indicated treatments. Treatment with TGFβ+bFGF generated populations with the largest proportion of actively cycling cells in response to agonists. Bars represent standard error of the mean; N=3/group; *P<0.05, **P<0.01 compared by one-way ANOVA with Tukey post hoc test. (b) The frequency of calcium cycles in actively cycling cells in the conditions as indicated at baseline and after NE and PE addition. Stacked bars represent the contribution to frequency of calcium cycling during baseline recording (hatched lines), and after NE (white) or PE (black) treatment. (c) The amplitude of calcium transients after NE and PE addition in the EMT induced cultures. No Treatment NE N=6 cells, PE N=4 cells; TGFβ NE N=6 cells, PE N=12 cells; TGFβ+bFGF NE N=13 cells, PE N=25 cells. *P<0.05 compared by one-way ANOVA with Tukey post hoc test. (d) The duration of calcium transients after NE and PE addition in the EMT induced cultures. […]
To test the contractile function of the smooth muscle-like cells generated following the EMT induced with TGFβ and TGFβ+bFGF, calcium transients were measured following stimulation with norepinephrine (NE) and phenylephrine (PE) using previously described methods^32. […]

[3] = qRT-PCR 8 days after EMT initiation

| Substance | ZO1 (and WT1) expression by immunostaining ([1]; 8 days after EMT initiation) | MYH11 expression [1, 3] | expression of smooth muscle genes CNN1, MYH11, TAGLN, SMTN and fibroblast marker TCF21 [1, 3] | SNAI1 expression ([1]; qRT-PCR after EMT initiation) | SNAI2 expression ([1]; qRT-PCR after EMT initiation) | WT1 expression over time after EMT initiation [1] | Matrigel invasion (migratory behaviour, depth) (hPSC-derived Epi cells) | proportion of cells that migrated beyond 200 μm (hPSC-derived Epi cells) | total cell number within the regions of interest (hPSC-derived Epi cells) [cells per ROI] | farthest depth of migration (hPSC-derived Epi cells; some cells) [μm] | ALDH1A2 expression and Aldefluor staining (WT1+ epicardial cells) | vimentin (VIM) immunostaining ([1]; 8 days after EMT initiation, compared with bFGF alone) | α-smooth muscle actin (SMA) immunostaining ([1]; compared to bFGF or absence of factors) | amplitude of calcium response ([2]; PE-treated, compared to control cultures) | calcium cycling rates ([2]; following PE stimulation, cells that exhibited calcium transients) |
| --- | --- | --- | --- | --- | --- | --- | --- | --- | --- | --- | --- | --- | --- | --- | --- |
| bFGF | internalized or lost | did not express MYH11 | expressed TCF21 in addition to CNN1, TAGLN and SMTN | induced the expression of SNAI1 | increases in SNAI2 expression | did not decline below those of the control | most migratory and invaded the matrigel to the greatest depth | approximately half | 379.7±40.5 | ≤ 600 | dramatically lower levels | – | – | – | – |
| TGFβ-1 | internalized or lost | – | upregulated expression of CNN1, MYH11, TAGLN and SMTN but not TCF21 | – | increases in SNAI2 expression | steady decreases in WT1 expression | little capacity to invade the Matrigel | – | 56.8±9.5 | – | dramatically lower levels | substantially brighter staining | higher levels | greatest | faster calcium cycling rates than those in the non-induced control cultures |
